Earlier results in US7879746B2, “Hydrophilic polypropylene fibers having antimicrobial activity” (3M Innovative Properties Company, priority 1999, dated 2011).

conditions: 100% active, glossary value

In order of rising HLB:
1. sorbitan sequioleate (1½ mole adduct) [ARLACEL™ 83]  3.7
2. sorbitan monostearate [ARLACEL™ 60]  4.3
3. sorbitan monopalmitate [SPAN™ 40]  6.7
